Assay results as given in US11491228B2, “Hydrogels and uses thereof” (Massachusetts Institute of Technology, priority 2018, dated 2022).

Assay: Release of taxanes from PEG alkynoate-TREN (beta-aminoacrylate) gel into PBS, HPLC
Format: physicochemical
Details: 37° C.
Procedure: Samples were stored at +4° C. […] The wavelength of detection was 227 nm. Phases were A: water, B: MeCN.

**Q.** Which results are given for `CC(=O)O[C@@]12CO[C@@H]1C[C@H](O)[C@@]1(C)C(=O)[C@H](O)C3=C(C)[C@@H](OC(=O)[C@H](O)[C@@H](NC(=O)OC(C)(C)C)c4ccccc4)C[C@@](O)([C@@H](OC(=O)c4ccccc4)[C@H]21)C3(C)C` [Docetaxel, docetaxel]?
**A.** Concentrations of taxane following release from PEG alkynoate-TREN gels (1 h, average): 39.29 ng/mL; Concentrations of taxane following release from PEG alkynoate-TREN gels (1 h, replicate A): -152.3 ng/mL; Concentrations of taxane following release from PEG alkynoate-TREN gels (1 h, replicate B): 422.4 ng/mL; Concentrations of taxane following release from PEG alkynoate-TREN gels (1 h, replicate C): -152.3 ng/mL; Concentrations of taxane following release from PEG alkynoate-TREN gels (2 h, average): 201.4 ng/mL; Concentrations of taxane following release from PEG alkynoate-TREN gels (2 h, replicate A): -152.3 ng/mL; Concentrations of taxane following release from PEG alkynoate-TREN gels (2 h, replicate B): 555 ng/mL; Concentrations of taxane following release from PEG alkynoate-TREN gels (2 h, replicate C): 201.4 ng/mL; Concentrations of taxane following release from PEG alkynoate-TREN gels (5 h, average): 363.5 ng/mL; Concentrations of taxane following release from PEG alkynoate-TREN gels (5 h, replicate A): 1041 ng/mL; Concentrations of taxane following release from PEG alkynoate-TREN gels (5 h, replicate B): 201.4 ng/mL; Concentrations of taxane following release from PEG alkynoate-TREN gels (5 h, replicate C): -152.3 ng/mL; Concentrations of taxane following release from PEG alkynoate-TREN gels (20 h, average): 267.7 ng/mL; Concentrations of taxane following release from PEG alkynoate-TREN gels (20 h, replicate A): 643.4 ng/mL; Concentrations of taxane following release from PEG alkynoate-TREN gels (20 h, replicate B): 311.9 ng/mL; Concentrations of taxane following release from PEG alkynoate-TREN gels (20 h, replicate C): -152.3 ng/mL; Concentrations of taxane following release from PEG alkynoate-TREN gels (48 h, average): 1127.9 ng/mL; Concentrations of taxane following release from PEG alkynoate-TREN gels (48 h, replicate A): 984.7 ng/mL; Concentrations of taxane following release from PEG alkynoate-TREN gels (48 h, replicate B): 1003 ng/mL; Concentrations of taxane following release from PEG alkynoate-TREN gels (48 h, replicate C): 1396 ng/mL; % released from PEG alkynoate-TREN gels (Table 3, 1 h, average): 0.05239%; % released from PEG alkynoate-TREN gels (Table 3, 1 h, replicate A): −0.203%; % released from PEG alkynoate-TREN gels (Table 3, 1 h, replicate B): 0.5632%; % released from PEG alkynoate-TREN gels (Table 3, 1 h, replicate C): −0.203%; % released from PEG alkynoate-TREN gels (Table 3, 2 h, average): 0.2685%; % released from PEG alkynoate-TREN gels (Table 3, 2 h, replicate A): −0.203%; % released from PEG alkynoate-TREN gels (Table 3, 2 h, replicate B): 0.74%; % released from PEG alkynoate-TREN gels (Table 3, 2 h, replicate C): 0.2685%; % released from PEG alkynoate-TREN gels (Table 3, 5 h, average): 0.4846%; % released from PEG alkynoate-TREN gels (Table 3, 5 h, replicate A): 1.388%; % released from PEG alkynoate-TREN gels (Table 3, 5 h, replicate B): 0.2685%; % released from PEG alkynoate-TREN gels (Table 3, 5 h, replicate C): −0.203%; % released from PEG alkynoate-TREN gels (Table 3, 20 h, average): 0.3569%; % released from PEG alkynoate-TREN gels (Table 3, 20 h, replicate A): 0.8579%; % released from PEG alkynoate-TREN gels (Table 3, 20 h, replicate B): 0.4158%; % released from PEG alkynoate-TREN gels (Table 3, 20 h, replicate C): −0.203%; % released from PEG alkynoate-TREN gels (Table 3, 48 h, average): 1.504%; % released from PEG alkynoate-TREN gels (Table 3, 48 h, replicate A): 1.3129%; % released from PEG alkynoate-TREN gels (Table 3, 48 h, replicate B): 1.337%; % released from PEG alkynoate-TREN gels (Table 3, 48 h, replicate C): 1.862%; % released from PEG alkynoate-TREN gels (Table 4, 1 h, average): 2.074%; % released from PEG alkynoate-TREN gels (Table 4, 1 h, replicate A): 2.465%; % released from PEG alkynoate-TREN gels (Table 4, 1 h, replicate B): 2.016%; % released from PEG alkynoate-TREN gels (Table 4, 1 h, replicate C): 1.741%; % released from PEG alkynoate-TREN gels (Table 4, 6 h, average): 4.82%; % released from PEG alkynoate-TREN gels (Table 4, 6 h, replicate A): 6.195%; % released from PEG alkynoate-TREN gels (Table 4, 6 h, replicate B): 4.946%; % released from PEG alkynoate-TREN gels (Table 4, 6 h, replicate C): 3.318%; % released from PEG alkynoate-TREN gels (Table 4, 24 h, average): 7.196%; % released from PEG alkynoate-TREN gels (Table 4, 24 h, replicate A): 11.23%; % released from PEG alkynoate-TREN gels (Table 4, 24 h, replicate B): 7.325%; % released from PEG alkynoate-TREN gels (Table 4, 24 h, replicate C): 3.032%; % released from PEG alkynoate-TREN gels (Table 4, 96 h, average): 12.3%; % released from PEG alkynoate-TREN gels (Table 4, 96 h, replicate A): 8.246%; % released from PEG alkynoate-TREN gels (Table 4, 96 h, replicate B): 9.349%; % released from PEG alkynoate-TREN gels (Table 4, 96 h, replicate C): 19.32%
